Reference: US20240138411A1, “METHOD OF […] OF SUGARCANE” (CORTEVA AGRISCIENCE LLC, priority 2021, published 2024)

Tested on: sugarcane
Assay: Sugarcane flowering inhibition field trials, floral induction rated on UFSCar scale
Type: in vivo
Details: 475 g ai/ha
Experimental: In order to explore the activity of florpyrauxifen as flowering inhibitor in sugarcane, field studies were carried out. Florpyrauxifen-benzyl was tested at rates from 2 to 20 grams active ingredient per hectare (g ai/ha) and compared to Ethrel® 720 (Bayer), the standard treatment. The flowering inhibition effect was assessed by checking the floral induction in sugarcane through the percentage scale recommended by UFSCar (Federal University of Sao Carlos, Sao Paulo, Brazil).
Four trials were carried out in sugarcane where florpyrauxifen-benzyl (Rinskor®), applied at a rate of 2 to 20 g ai/ha, was compared to ethephon (Ethrel® 720) applied at a rate of 475 g ai/ha. Control plots of untreated sugarcane were also evaluated. Rinskor® and Ethrel® 720 were diluted in water and a single application for each study (backpack sprayer) was performed delivering 50 L of spray solution per ha at the reproductive stage of sugarcane and at a maximum 150 days before harvest. The activity of florpyrauxifen-benzyl as a flowering inhibitor was measured via assessments (Scale of flowering inhibition—see chart 1) performed at 0, 14, 30, 45, 60, 75, 90, 120, 150 days after application, or up to harvest time. The assessments were measured in sugarcane stems, rating the flowering induction according to the UFSCar scale shown below. Significance of treatment effect was evaluated with F-approximate test (α=0.1) and least square means from different treatments were compared with Tukey's test.

**Q.** With `O=P(O)(O)CCCl` [ETHREL720, 2-chloroethylphosphonic acid] as the compound, how does the “% Referring to Scale” value (Table 1, 75 DAA) read?
**A.** 12.4%

**Q.** What about the “Frequency 1/1 (0%)” value (Table 1, 75 DAA) of the same compound?
**A.** 17.5%

**Q.** What about the “Frequency 2/1 (15%)” value (Table 1, 75 DAA) of the same compound?
**A.** 82.5%

**Q.** And the “Frequency 3/1 (30%)” value (Table 1, 75 DAA)?
**A.** 0.0%

**Q.** What about the “Frequency 4/1 (50%)” value (Table 1, 75 DAA) of the same compound?
**A.** 0.0%

**Q.** What about the “Frequency 4/2 (80%)” value (Table 1, 75 DAA) of the same compound?
**A.** 0.0%

**Q.** And the “Frequency 4/3 (90%)” value (Table 1, 75 DAA)?
**A.** 0.0%

**Q.** And the “Frequency 4/4 (100%)” value (Table 1, 75 DAA)?
**A.** 0.0%

**Q.** And the “% Referring to Scale” value (Table 1, 90 DAA)?
**A.** 13.1%

**Q.** And the “Frequency 1/1 (0%)” value (Table 1, 90 DAA)?
**A.** 20.0%

**Q.** What about the “Frequency 2/1 (15%)” value (Table 1, 90 DAA) of the same compound?
**A.** 72.5%

**Q.** What about the “Frequency 3/1 (30%)” value (Table 1, 90 DAA) of the same compound?
**A.** 7.5%

**Q.** What about the “Frequency 4/1 (50%)” value (Table 1, 90 DAA) of the same compound?
**A.** 0.0%

**Q.** What about the “Frequency 4/2 (80%)” value (Table 1, 90 DAA) of the same compound?
**A.** 0.0%

**Q.** What about the “Frequency 4/3 (90%)” value (Table 1, 90 DAA) of the same compound?
**A.** 0.0%

**Q.** And the “Frequency 4/4 (100%)” value (Table 1, 90 DAA)?
**A.** 0.0%

**Q.** And the “% Referring to Scale” value (Table 1, 120 DAA)?
**A.** 18.1%

**Q.** And the “Frequency 1/1 (0%)” value (Table 1, 120 DAA)?
**A.** 0.0%

**Q.** And the “Frequency 2/1 (15%)” value (Table 1, 120 DAA)?
**A.** 87.5%

**Q.** And the “Frequency 3/1 (30%)” value (Table 1, 120 DAA)?
**A.** 10.0%

**Q.** And the “Frequency 4/1 (50%)” value (Table 1, 120 DAA)?
**A.** 0.0%

**Q.** And the “Frequency 4/2 (80%)” value (Table 1, 120 DAA)?
**A.** 2.5%

**Q.** What about the “Frequency 4/3 (90%)” value (Table 1, 120 DAA) of the same compound?
**A.** 0.0%

**Q.** And the “Frequency 4/4 (100%)” value (Table 1, 120 DAA)?
**A.** 0.0%

**Q.** What about the “% Referring to Scale” value (Table 2, 75 DAA) of the same compound?
**A.** 0.8%

**Q.** And the “Frequency 1/1 (0%)” value (Table 2, 75 DAA)?
**A.** 95.0%

**Q.** And the “Frequency 2/1 (15%)” value (Table 2, 75 DAA)?
**A.** 5.0%

**Q.** And the “Frequency 3/1 (30%)” value (Table 2, 75 DAA)?
**A.** 0.0%

**Q.** And the “Frequency 4/1 (50%)” value (Table 2, 75 DAA)?
**A.** 0.0%

**Q.** And the “Frequency 4/2 (80%)” value (Table 2, 75 DAA)?
**A.** 0.0%

**Q.** And the “Frequency 4/3 (90%)” value (Table 2, 75 DAA)?
**A.** 0.0%

**Q.** And the “Frequency 4/4 (100%)” value (Table 2, 75 DAA)?
**A.** 0.0%

**Q.** And the “% Referring to Scale” value (Table 2, 90 DAA)?
**A.** 51.8%

**Q.** What about the “Frequency 1/1 (0%)” value (Table 2, 90 DAA) of the same compound?
**A.** 0.0%

**Q.** What about the “Frequency 2/1 (15%)” value (Table 2, 90 DAA) of the same compound?
**A.** 0.0%

**Q.** And the “Frequency 3/1 (30%)” value (Table 2, 90 DAA)?
**A.** 25.0%

**Q.** What about the “Frequency 4/1 (50%)” value (Table 2, 90 DAA) of the same compound?
**A.** 52.5%

**Q.** What about the “Frequency 4/2 (80%)” value (Table 2, 90 DAA) of the same compound?
**A.** 22.5%

**Q.** And the “Frequency 4/3 (90%)” value (Table 2, 90 DAA)?
**A.** 0.0%

**Q.** What about the “Frequency 4/4 (100%)” value (Table 2, 90 DAA) of the same compound?
**A.** 0.0%

**Q.** What about the “% Referring to Scale” value (Table 2, 120 DAA) of the same compound?
**A.** 98.0%

**Q.** And the “Frequency 1/1 (0%)” value (Table 2, 120 DAA)?
**A.** 0.0%

**Q.** What about the “Frequency 2/1 (15%)” value (Table 2, 120 DAA) of the same compound?
**A.** 0.0%

**Q.** And the “Frequency 3/1 (30%)” value (Table 2, 120 DAA)?
**A.** 0.0%

**Q.** What about the “Frequency 4/1 (50%)” value (Table 2, 120 DAA) of the same compound?
**A.** 0.0%

**Q.** What about the “Frequency 4/2 (80%)” value (Table 2, 120 DAA) of the same compound?
**A.** 2.5%

**Q.** And the “Frequency 4/3 (90%)” value (Table 2, 120 DAA)?
**A.** 15.0%

**Q.** And the “Frequency 4/4 (100%)” value (Table 2, 120 DAA)?
**A.** 82.5%

**Q.** What about the “% Referring to Scale” value (Table 3, 90 DAA) of the same compound?
**A.** 0.0%

**Q.** What about the “Frequency 1/1 (0%)” value (Table 3, 90 DAA) of the same compound?
**A.** 100.0%

**Q.** What about the “Frequency 2/1 (15%)” value (Table 3, 90 DAA) of the same compound?
**A.** 0.0%

**Q.** And the “Frequency 3/1 (30%)” value (Table 3, 90 DAA)?
**A.** 0.0%

**Q.** And the “Frequency 4/1 (50%)” value (Table 3, 90 DAA)?
**A.** 0.0%

**Q.** What about the “Frequency 4/2 (80%)” value (Table 3, 90 DAA) of the same compound?
**A.** 0.0%

**Q.** What about the “Frequency 4/3 (90%)” value (Table 3, 90 DAA) of the same compound?
**A.** 0.0%

**Q.** And the “Frequency 4/4 (100%)” value (Table 3, 90 DAA)?
**A.** 0.0%

**Q.** And the “% Referring to Scale” value (Table 3, 120 DAA)?
**A.** 1.5%

**Q.** What about the “Frequency 1/1 (0%)” value (Table 3, 120 DAA) of the same compound?
**A.** 90.0%

**Q.** And the “Frequency 2/1 (15%)” value (Table 3, 120 DAA)?
**A.** 10.0%

**Q.** What about the “Frequency 3/1 (30%)” value (Table 3, 120 DAA) of the same compound?
**A.** 0.0%

**Q.** And the “Frequency 4/1 (50%)” value (Table 3, 120 DAA)?
**A.** 0.0%

**Q.** What about the “Frequency 4/2 (80%)” value (Table 3, 120 DAA) of the same compound?
**A.** 0.0%

**Q.** And the “Frequency 4/3 (90%)” value (Table 3, 120 DAA)?
**A.** 0.0%

**Q.** And the “Frequency 4/4 (100%)” value (Table 3, 120 DAA)?
**A.** 0.0%

**Q.** What about the “% Referring to Scale” value (Table 3, 150 DAA) of the same compound?
**A.** 0.0%

**Q.** What about the “Frequency 1/1 (0%)” value (Table 3, 150 DAA) of the same compound?
**A.** 100.0%

**Q.** And the “Frequency 2/1 (15%)” value (Table 3, 150 DAA)?
**A.** 0.0%

**Q.** And the “Frequency 3/1 (30%)” value (Table 3, 150 DAA)?
**A.** 0.0%

**Q.** And the “Frequency 4/1 (50%)” value (Table 3, 150 DAA)?
**A.** 0.0%

**Q.** And the “Frequency 4/2 (80%)” value (Table 3, 150 DAA)?
**A.** 0.0%

**Q.** What about the “Frequency 4/3 (90%)” value (Table 3, 150 DAA) of the same compound?
**A.** 0.0%

**Q.** And the “Frequency 4/4 (100%)” value (Table 3, 150 DAA)?
**A.** 0.0%

**Q.** What about the “% Referring to Scale” value (Table 4, 90 DAA) of the same compound?
**A.** 4.9%

**Q.** And the “Frequency 1/1 (0%)” value (Table 4, 90 DAA)?
**A.** 67.5%

**Q.** And the “Frequency 2/1 (15%)” value (Table 4, 90 DAA)?
**A.** 32.5%

**Q.** What about the “Frequency 3/1 (30%)” value (Table 4, 90 DAA) of the same compound?
**A.** 0.0%

**Q.** What about the “Frequency 4/1 (50%)” value (Table 4, 90 DAA) of the same compound?
**A.** 0.0%

**Q.** And the “Frequency 4/2 (80%)” value (Table 4, 90 DAA)?
**A.** 0.0%

**Q.** And the “Frequency 4/3 (90%)” value (Table 4, 90 DAA)?
**A.** 0.0%

**Q.** And the “Frequency 4/4 (100%)” value (Table 4, 90 DAA)?
**A.** 0.0%
